For the experiment, the system named is naive T cells (CD4+CD62L+). The experiment in a line: Differentiation of naive CD4+ T cells stimulated with antigen and antigen presenting cells; cytokine profile after restimulation (FACS, secreted cytokines). The class given is cell-based, mouse. To be noted: antigen and APC culture of DO11.10 CD4+ T cells.

Molecules are shown by their SMILES.

Description: IL-2 is present in the culture after the first 3 days of activation. VitD3 is used at 4×10^-8 M (preferably in the range 4×10^-9 M to 4×10^-7 M) while DEX is used at 10^-8M (preferably in the range of 10^-9 M to 10^-7 M).
The cytokine profiles produced by the cells after restimulation are evaluated after 6 h by FACS analysis, while the quantities are accumulated by the respective cell population in 1 ml for 48 h.
DO.11.10 mice transgenic for an ovalbumin323-339 specific αβTCR were used as a source of antigen specific T cells. […] They were backcrossed on to a BALB/C background and (DO11.10×BALB/C)F1 mice were used as the source of T cells in all experiments. BALB/C (Taconics, Germantown, N.Y.) mice were used to provide splenic antigen presenting cells (APC).
Briefly, immunomagnetic depletion of CD8α^+, B220^+, and Mac-1^+ splenocytes was performed using goat anti-rat Ig coated beads (Biomag, PerSeptive Biosystems, Framingham, Mass.). The depleted population was then stained with anti-CD4-FITC and anti-L-selectin-PE and CD4^+ L-selectin^high cells were sorted using a FACStar^Plus cell sorter (Becton-Dickinson, Mountain View, Calif.). […] After 6 days, T cells were harvested, counted, and restimulated at 2.5×10^4 per well in 200 μl in 96 well plates for phenotype analysis by cytokine secretion. […]

For `C=C1/C(=C\C=C2/CCC[C@]3(C)[C@@H]([C@H](C)CCCC(C)(C)O)CC[C@@H]23)C[C@@H](O)C[C@@H]1O` [VitD3, 1,25(OH)-Dihydroxyvitamin D3], the “Resulting T cell population / cytokine profile (in words)” value is “drive the development of Th2 cells producing high levels of IL-4 and IL-5 and reduced IFN-γ”.

These data come from patent publication US7122340B2, “Regulatory T cells; methods” (Schering Corporation, priority 2000, dated 2006).
